Reference: patent publication US20240092758A1, “IMIDAZOLO INDAZOLE COMPOUNDS AS JAK INHIBITORS” (Theravance Biopharma R&D IP, LLC, priority 2021, published 2024)

Tests used:
TYK2 = TYK2 (Homo sapiens (Human), UniProt P29597); experiment: Biochemical JAK kinase assay (LanthaScreen), Tyk2; conditions: read-out: Tyk2 pKi (converted)
Method in brief: (§1)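 LanthaScreen format: phospho-STAT1 (pTyr701) detected with 2 nM Tb antibody after 10 mM EDTA quench. Kinase step used Km-level ATP and 200 nM STAT1 peptide, 1 h at ambient after 1 h pre-incubation. Inhibition fitted to IC50, reported as pKi.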

[1] = Pharmacokinetics in plasma and lung in mouse after oral aspiration administration; assay type: in vivo; conditions: male CD1 mice; for Lung Tissue AUC(0-24) / AUC(0-t): 0.2 mg/mL, two 25 μL increments; for Lung Tissue:Plasma AUC ratio: lung AUC to plasma AUC; for AUC(0-t): mouse, inhaled or intranasal, 0.01 mg/mouse, plasma, read-out: Plasma AUC(0-24)
Protocol: Plasma and lung concentrations of test compounds were quantified and pharmacokinetic parameters were calculated in the following manner. Male CD1 mice from Charles River Laboratories were used in the pharmacokinetic studies. Test compounds were individually formulated in 20% propylene glycol in pH 4 citrate buffer at a concentration of 0.2 mg/mL. Test compounds were administered in two, 25 μL increments introduced into the trachea of each mouse by oral aspiration using a calibrated pipette once the animal was anesthetized using isoflurane. Blood samples were collected as terminal collections via cardiac puncture at 0.167, 1, 4, 8, and 24 hr post-dosing. Following […] with CO2, a direct cardiac puncture was performed while avoiding puncturing the lung and blood was immediately transferred into K2EDTA tubes and placed on wet ice. Blood samples were centrifuged (Eppendorf centrifuge, 5804R) for 4 minutes at approximately 12,000 rpm at 4° C. to collect plasma. Intact lungs were also excised from these mice using the same timepoints (0.167, 1, 4, 8, and 24 hr). Lungs were washed with sterile water to remove any blood residue and were patted dry, weighed, and homogenized in 0.1% formic acid in water at a dilution of 1:3 (lung:water, weight/volume). Plasma and lung concentrations of test compounds were determined by LC-MS/MS analysis against analytical standards constructed into a standard curve in the test matrix. The pharmacokinetic parameters of test compounds were determined by non-compartmental analysis. For concentrations below the limit of quantification, zero was used for mean calculations. Mean values were not reported if more than 50% of the samples were below the limit of quantification at a timepoint, or if more than 50% of a calculated pharmacokinetic parameter was not reportable. The area under the concentration-time curve extrapolated to infinity (AUC(0-inf)) was calculated as follows: AUC(0-inf)=AUC(0-t)+Clast/k, where AUC(0-t) is the area under the concentration-time curve from the time of dosing to the last measurable concentration calculated by the linear trapezoidal rule, Clast is the last measurable concentration, and k is the first order rate constant associated with the terminal elimination phase, estimated by linear regression of time versus log concentration. The lung-to-plasma AUC ratio was determined as the ratio of the lung AUC(0-inf) in μg*hr/g to the plasma AUC(0-inf) in μg*hr/mL.

[2] = tested on: IL-13 induced STAT6 phosphorylation in BEAS-2B human lung epithelial cells; experiment: Cellular JAKI potency assay (BEAS-2B); assay type: cell-based; conditions: Homo sapiens, BEAS-2B, BEAS-2B cells, read-out: BEAS2B pIC50 (converted)
Method in brief: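 AlphaLISA SureFire detection of Tyr641 pSTAT6 in lysates gave IC50s (4-parameter fit, expressed as pIC50). Cells: human BEAS-2B, exposed 1 h at 37 °C to compound dose series at 0.1% DMSO, then 30 min to IL-13 added at 80 ng/mL in HEPES-buffered HBSS with BSA.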

JAK3 = JAK3 (Homo sapiens (Human), UniProt P52333); experiment: Biochemical JAK kinase assay (LanthaScreen), JAK3; conditions: read-out: JAK3 pKi (converted)
Method in brief: as §1

JAK2 = JAK2 (Homo sapiens (Human), UniProt O60674); experiment: Biochemical JAK kinase assay (LanthaScreen), JAK2; conditions: for Ki: read-out: JAK2 pKi (converted)
Method in brief: as §1

JAK1 = JAK1 (Homo sapiens (Human), UniProt P23458); experiment: Biochemical JAK kinase assay (LanthaScreen), JAK1; conditions: for Ki: read-out: JAK1 pKi (converted)
Method in brief: as §1

Chain of JAK1 (P23458 whole entry): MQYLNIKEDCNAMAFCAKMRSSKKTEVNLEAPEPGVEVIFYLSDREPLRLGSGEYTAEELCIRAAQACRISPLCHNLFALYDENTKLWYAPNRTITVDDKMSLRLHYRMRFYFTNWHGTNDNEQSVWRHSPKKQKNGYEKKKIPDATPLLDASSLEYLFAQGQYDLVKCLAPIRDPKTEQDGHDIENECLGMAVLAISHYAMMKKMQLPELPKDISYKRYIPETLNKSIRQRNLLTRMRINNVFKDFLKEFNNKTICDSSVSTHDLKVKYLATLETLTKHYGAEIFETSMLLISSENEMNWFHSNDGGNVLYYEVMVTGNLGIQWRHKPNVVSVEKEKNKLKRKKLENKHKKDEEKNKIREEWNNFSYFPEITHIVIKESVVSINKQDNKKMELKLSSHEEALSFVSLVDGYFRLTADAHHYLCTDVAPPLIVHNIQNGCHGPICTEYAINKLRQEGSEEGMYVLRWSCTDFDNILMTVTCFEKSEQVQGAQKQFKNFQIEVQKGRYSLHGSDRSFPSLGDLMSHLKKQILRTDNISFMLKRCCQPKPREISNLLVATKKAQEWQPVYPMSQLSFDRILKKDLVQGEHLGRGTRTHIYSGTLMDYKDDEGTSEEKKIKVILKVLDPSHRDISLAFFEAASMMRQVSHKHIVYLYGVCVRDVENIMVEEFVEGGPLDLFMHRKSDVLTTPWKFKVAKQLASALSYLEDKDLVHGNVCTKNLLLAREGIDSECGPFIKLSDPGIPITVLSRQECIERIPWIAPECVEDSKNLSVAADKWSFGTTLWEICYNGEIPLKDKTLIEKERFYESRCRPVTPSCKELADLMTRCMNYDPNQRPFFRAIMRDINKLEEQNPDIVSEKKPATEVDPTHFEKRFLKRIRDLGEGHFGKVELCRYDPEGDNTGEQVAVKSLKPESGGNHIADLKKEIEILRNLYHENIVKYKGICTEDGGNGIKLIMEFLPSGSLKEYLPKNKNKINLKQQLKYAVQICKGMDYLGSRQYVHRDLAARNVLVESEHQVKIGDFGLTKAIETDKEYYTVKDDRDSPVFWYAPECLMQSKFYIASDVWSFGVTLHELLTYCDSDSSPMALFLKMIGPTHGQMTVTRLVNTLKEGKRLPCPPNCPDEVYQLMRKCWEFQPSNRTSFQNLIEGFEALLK
Chain of JAK2 (O60674 whole entry): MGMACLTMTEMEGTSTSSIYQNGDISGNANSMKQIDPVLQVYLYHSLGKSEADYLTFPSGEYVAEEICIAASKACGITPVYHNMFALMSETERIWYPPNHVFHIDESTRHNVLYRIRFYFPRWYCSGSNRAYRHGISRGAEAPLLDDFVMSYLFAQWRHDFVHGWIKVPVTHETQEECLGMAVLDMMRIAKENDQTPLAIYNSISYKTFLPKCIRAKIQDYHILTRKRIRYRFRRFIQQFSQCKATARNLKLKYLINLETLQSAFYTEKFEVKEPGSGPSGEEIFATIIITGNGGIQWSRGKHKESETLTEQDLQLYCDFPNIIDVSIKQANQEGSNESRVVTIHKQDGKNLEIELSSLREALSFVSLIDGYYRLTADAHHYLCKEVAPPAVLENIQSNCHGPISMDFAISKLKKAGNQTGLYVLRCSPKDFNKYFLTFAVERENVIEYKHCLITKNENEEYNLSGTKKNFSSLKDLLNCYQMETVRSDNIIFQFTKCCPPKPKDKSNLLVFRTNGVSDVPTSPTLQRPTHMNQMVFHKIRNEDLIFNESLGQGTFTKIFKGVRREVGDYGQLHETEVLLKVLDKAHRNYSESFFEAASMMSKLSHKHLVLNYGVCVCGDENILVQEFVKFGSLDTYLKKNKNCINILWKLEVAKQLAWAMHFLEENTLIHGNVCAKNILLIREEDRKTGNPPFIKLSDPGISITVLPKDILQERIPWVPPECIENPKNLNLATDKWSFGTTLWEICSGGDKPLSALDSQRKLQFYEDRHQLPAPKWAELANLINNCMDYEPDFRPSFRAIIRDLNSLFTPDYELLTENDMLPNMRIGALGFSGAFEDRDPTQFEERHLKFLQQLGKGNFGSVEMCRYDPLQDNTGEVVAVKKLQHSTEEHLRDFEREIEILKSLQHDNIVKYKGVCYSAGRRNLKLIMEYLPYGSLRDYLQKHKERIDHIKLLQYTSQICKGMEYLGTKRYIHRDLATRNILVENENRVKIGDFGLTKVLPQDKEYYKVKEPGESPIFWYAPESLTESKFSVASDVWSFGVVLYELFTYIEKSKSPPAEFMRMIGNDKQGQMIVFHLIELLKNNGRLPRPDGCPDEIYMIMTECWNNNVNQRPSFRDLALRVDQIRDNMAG
Chain of TYK2 (P29597 whole entry): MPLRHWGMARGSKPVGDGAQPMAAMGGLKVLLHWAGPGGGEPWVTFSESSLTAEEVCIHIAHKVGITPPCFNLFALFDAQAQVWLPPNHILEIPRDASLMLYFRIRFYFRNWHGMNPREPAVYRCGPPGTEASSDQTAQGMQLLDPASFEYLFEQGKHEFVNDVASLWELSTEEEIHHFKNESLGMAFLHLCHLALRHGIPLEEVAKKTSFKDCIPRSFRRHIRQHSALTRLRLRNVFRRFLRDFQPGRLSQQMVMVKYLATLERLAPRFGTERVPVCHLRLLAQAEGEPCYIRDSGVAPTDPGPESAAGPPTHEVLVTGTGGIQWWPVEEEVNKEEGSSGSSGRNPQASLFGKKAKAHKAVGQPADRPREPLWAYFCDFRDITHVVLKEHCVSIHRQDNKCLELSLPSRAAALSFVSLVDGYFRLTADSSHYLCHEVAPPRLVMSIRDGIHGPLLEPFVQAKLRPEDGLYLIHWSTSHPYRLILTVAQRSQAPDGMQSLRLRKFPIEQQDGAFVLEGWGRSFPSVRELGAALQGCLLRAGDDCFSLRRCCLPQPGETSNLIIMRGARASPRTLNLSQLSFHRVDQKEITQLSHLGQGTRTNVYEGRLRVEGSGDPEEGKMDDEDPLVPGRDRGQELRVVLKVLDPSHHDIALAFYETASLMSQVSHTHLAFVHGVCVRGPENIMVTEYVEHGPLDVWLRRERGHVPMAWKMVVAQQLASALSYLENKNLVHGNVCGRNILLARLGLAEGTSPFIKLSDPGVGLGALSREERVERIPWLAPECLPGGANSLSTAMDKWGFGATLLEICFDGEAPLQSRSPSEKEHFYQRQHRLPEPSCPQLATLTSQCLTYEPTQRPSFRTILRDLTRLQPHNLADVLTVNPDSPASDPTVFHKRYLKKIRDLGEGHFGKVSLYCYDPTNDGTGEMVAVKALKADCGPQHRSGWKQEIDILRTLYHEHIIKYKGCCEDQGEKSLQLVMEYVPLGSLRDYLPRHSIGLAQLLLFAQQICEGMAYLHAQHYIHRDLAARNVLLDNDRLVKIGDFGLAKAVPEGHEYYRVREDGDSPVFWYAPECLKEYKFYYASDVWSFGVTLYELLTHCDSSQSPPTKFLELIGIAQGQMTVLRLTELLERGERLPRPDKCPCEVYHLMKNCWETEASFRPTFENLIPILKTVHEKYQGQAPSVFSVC
Chain of JAK3 (P52333 whole entry): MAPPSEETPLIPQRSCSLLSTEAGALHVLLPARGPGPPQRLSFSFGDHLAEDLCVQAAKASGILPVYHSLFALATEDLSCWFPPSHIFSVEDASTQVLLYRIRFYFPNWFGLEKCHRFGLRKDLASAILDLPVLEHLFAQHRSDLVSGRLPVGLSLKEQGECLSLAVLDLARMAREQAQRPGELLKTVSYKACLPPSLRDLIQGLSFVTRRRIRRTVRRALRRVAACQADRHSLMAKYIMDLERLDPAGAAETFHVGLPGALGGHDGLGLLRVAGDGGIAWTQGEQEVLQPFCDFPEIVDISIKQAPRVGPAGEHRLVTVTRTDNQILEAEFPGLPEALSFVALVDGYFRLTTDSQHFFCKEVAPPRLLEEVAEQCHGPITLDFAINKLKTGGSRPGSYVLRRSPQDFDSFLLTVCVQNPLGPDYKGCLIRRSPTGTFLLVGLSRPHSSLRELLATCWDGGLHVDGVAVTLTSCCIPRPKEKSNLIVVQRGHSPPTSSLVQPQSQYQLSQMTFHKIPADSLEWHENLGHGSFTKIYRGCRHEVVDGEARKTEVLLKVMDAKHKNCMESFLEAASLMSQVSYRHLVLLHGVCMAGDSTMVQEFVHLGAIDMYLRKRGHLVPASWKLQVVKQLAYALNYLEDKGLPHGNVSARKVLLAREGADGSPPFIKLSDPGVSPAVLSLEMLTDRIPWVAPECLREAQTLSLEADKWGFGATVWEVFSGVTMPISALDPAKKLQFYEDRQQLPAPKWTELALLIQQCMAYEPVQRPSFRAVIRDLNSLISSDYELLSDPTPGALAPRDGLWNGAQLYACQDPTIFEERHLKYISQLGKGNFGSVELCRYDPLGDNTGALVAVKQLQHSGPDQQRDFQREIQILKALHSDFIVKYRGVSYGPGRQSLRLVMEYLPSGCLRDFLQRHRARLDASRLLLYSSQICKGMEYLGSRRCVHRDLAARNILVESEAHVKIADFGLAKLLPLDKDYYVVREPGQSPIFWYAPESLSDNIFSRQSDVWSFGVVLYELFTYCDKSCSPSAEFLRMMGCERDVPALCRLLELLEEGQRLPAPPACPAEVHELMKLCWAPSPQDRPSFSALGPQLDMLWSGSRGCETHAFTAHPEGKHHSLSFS

Row | Structure (SMILES) | Ki (TYK2) | Lung Tissue AUC(0-24) [1] | Lung Tissue:Plasma AUC ratio [1] | AUC(0-t) [1] | IC50 [2] | Ki (JAK3) | JAK2 pKi (JAK2) | Ki (JAK1) | Ki (JAK2) | JAK1 pKi (JAK1)
1 | CCc1cc(O)ccc1-c1ccc2c(-c3nc(C4=CCN(C(=O)[C@@H](N)C(C)(C)O)C4)c[nH]3)n[nH]c2c1 [Example 170] | 0.1 to 1 nM | B (B denotes a value between 50 and 100) | C (C denotes a ratio between 100 and 200) | < 500 ng·h/mL | 10 to 31.6 nM | 0.1 to 1 nM | A (A represents a pKi value ≥10 (Ki≤0.1 nM)) | 0.1 to 1 nM | – | –
2 | CCc1cc(O)ccc1-c1ccc2c(-c3nc(C4=CCN(C(C)C)C4)c[nH]3)n[nH]c2c1F [Example 32] | 1 to 10 nM | C (C denotes a value between 9 and 50) | D (D denotes a ratio between 50 and 100) | < 500 ng·h/mL | 3.16 to 10 nM | 0.1 to 1 nM | – | 0.1 to 1 nM | 0.1 to 1 nM | –
3 | CCc1cc(O)ccc1-c1ccc2c(-c3nc(C4=CC[C@H](C)NC4)c[nH]3)n[nH]c2c1F [Example 234] | 1 to 10 nM | B (B denotes a value between 50 and 100) | C (C denotes a ratio between 100 and 200) | < 500 ng·h/mL | 3.16 to 10 nM | 1 to 10 nM | – | – | 0.1 to 1 nM | A (A represents a pKi value ≥10 (Ki≤0.1 nM))
4 | CCc1cc(O)ccc1-c1ccc2c(-c3nc(C4=C(C)CNCC4)c[nH]3)n[nH]c2c1F [Example 227] | 1 to 10 nM | A (For the Lung Tissue AUC(0-24), A denotes a value between 100 and 200) | C (C denotes a ratio between 100 and 200) | 500 to 1000 ng·h/mL | 10 to 31.6 nM | 1 to 10 nM | – | 0.1 to 1 nM | 0.1 to 1 nM | –
5 | CCc1cc(O)ccc1-c1ccc2c(-c3nc(C4=CCN(C[C@@H]5COCCN5)CC4)c[nH]3)n[nH]c2c1 [Compound 17, (R)-3-ethyl-4-(3-(4-(1-(morpholin-3-ylmethyl)-1,2,3,6-tetrahydropyridin-4-yl)-1H-imidazol-2-yl)-1H-indazol-6-yl)phenol] | 1 to 10 nM | B (B denotes a value between 50 and 100) | C (C denotes a ratio between 100 and 200) | 500 to 1000 ng·h/mL | 3.16 to 10 nM | 0.1 to 1 nM | – | 0.1 to 1 nM | 0.1 to 1 nM | –
6 | CCc1cc(O)ccc1-c1ccc2c(-c3nc(C4=CCN(C(C)C)CC4)c[nH]3)n[nH]c2c1F [Example 22] | 1 to 10 nM | C (C denotes a value between 9 and 50) | D (D denotes a ratio between 50 and 100) | < 500 ng·h/mL | 3.16 to 10 nM | 0.1 to 1 nM | A (A represents a pKi value ≥10 (Ki≤0.1 nM)) | 0.1 to 1 nM | – | –
7 | CCc1cc(O)ccc1-c1ccc2c(-c3nc(C4=CCN(C5CCN(C)CC5)CC4)c[nH]3)n[nH]c2c1F [Example 185] | 1 to 10 nM | A (For the Lung Tissue AUC(0-24), A denotes a value between 100 and 200) | B (B denotes a ratio between 200 and 300) | 500 to 1000 ng·h/mL | 10 to 31.6 nM | 0.1 to 1 nM | – | 0.1 to 1 nM | 0.1 to 1 nM | –
8 | CCc1cc(O)ccc1-c1ccc2c(-c3nc(C4=CC[C@@H](C)NC4)c[nH]3)n[nH]c2c1F [Example 235] | 1 to 10 nM | C (C denotes a value between 9 and 50) | C (C denotes a ratio between 100 and 200) | < 500 ng·h/mL | 10 to 31.6 nM | 0.1 to 1 nM | A (A represents a pKi value ≥10 (Ki≤0.1 nM)) | 0.1 to 1 nM | – | –
9 | CCc1cc(O)ccc1-c1ccc2c(-c3nc(C4=CCNC4)c[nH]3)n[nH]c2c1 [Compound 5, 4-(3-(4-(2,5-dihydro-1H-pyrrol-3-yl)-1H-imidazol-2-yl)-1H-indazol-6-yl)-3-ethylphenol] | 0.1 to 1 nM | C (C denotes a value between 9 and 50) | D (D denotes a ratio between 50 and 100) | < 500 ng·h/mL | 3.16 to 10 nM | 0.1 to 1 nM | – | – | 0.1 to 1 nM | A (A represents a pKi value ≥10 (Ki≤0.1 nM))
10 | CCc1cc(O)ccc1-c1ccc2c(-c3nc(C4=CCCNC4)c[nH]3)n[nH]c2c1F [Compound 6, 3-ethyl-4-(7-fluoro-3-(4-(1,2,5,6-tetrahydropyridin-3-yl)-1H-imidazol-2-yl)-1H-indazol-6-yl)phenol] | 1 to 10 nM | B (B denotes a value between 50 and 100) | D (D denotes a ratio between 50 and 100) | 500 to 1000 ng·h/mL | 3.16 to 10 nM | 1 to 10 nM | – | 0.1 to 1 nM | 0.1 to 1 nM | –
11 | CCc1cc(O)ccc1-c1ccc2c(-c3nc(C4=CCCN(C5CCN(C)CC5)C4)c[nH]3)n[nH]c2c1 [Example 192] | 1 to 10 nM | A (For the Lung Tissue AUC(0-24), A denotes a value between 100 and 200) | A (For the ratio of lung exposure to plasma exposure, A denotes a ratio 300-410) | < 500 ng·h/mL | 10 to 31.6 nM | 0.1 to 1 nM | A (A represents a pKi value ≥10 (Ki≤0.1 nM)) | 0.1 to 1 nM | – | –
12 | CCc1cc(O)ccc1-c1ccc2c(-c3nc(C4=CCN(CCCO)CC4)c[nH]3)n[nH]c2c1F [Compound 14, 3-ethyl-4-(7-fluoro-3-(4-(1-(3-hydroxypropyl)-1,2,3,6-tetrahydropyridin-4-yl)-1H-imidazol-2-yl)-1H-indazol-6-yl)phenol] | 1 to 10 nM | C (C denotes a value between 9 and 50) | C (C denotes a ratio between 100 and 200) | < 500 ng·h/mL | 10 to 31.6 nM | 0.1 to 1 nM | – | 0.1 to 1 nM | – | –
13 | CCc1cc(O)ccc1-c1ccc2c(-c3nc(C4=CCN(C5CN(C)C5)C4)c[nH]3)n[nH]c2c1F [Example 202] | 1 to 10 nM | B (B denotes a value between 50 and 100) | D (D denotes a ratio between 50 and 100) | 500 to 1000 ng·h/mL | 10 to 31.6 nM | 0.1 to 1 nM | A (A represents a pKi value ≥10 (Ki≤0.1 nM)) | 0.1 to 1 nM | – | –
14 | CCc1cc(O)ccc1-c1ccc2c(-c3nc(C4=C[C@H](COC)NC4)c[nH]3)n[nH]c2c1F [Compound 9, (R)-3-ethyl-4-(7-fluoro-3-(4-(5-(methoxymethyl)-2,5-dihydro-1H-pyrrol-3-yl)-1H-imidazol-2-yl)-1H-indazol-6-yl)phenol] | 10 to 100 nM | C (C denotes a value between 9 and 50) | C (C denotes a ratio between 100 and 200) | < 500 ng·h/mL | 3.16 to 10 nM | 0.1 to 1 nM | – | – | 0.1 to 1 nM | A (A represents a pKi value ≥10 (Ki≤0.1 nM))
15 | CCc1cc(O)ccc1-c1ccc2c(-c3nc(C4=CC5COCC(C4)N5)c[nH]3)n[nH]c2c1 (centres unmarked) [Compound 7, 4-(3-(4-(3-oxa-9-azabicyclo[3.3.1]non-6-en-7-yl)-1H-imidazol-2-yl)-1H-indazol-6-yl)-3-ethylphenol] | 1 to 10 nM | B (B denotes a value between 50 and 100) | C (C denotes a ratio between 100 and 200) | < 500 ng·h/mL | 10 to 31.6 nM | 0.1 to 1 nM | A (A represents a pKi value ≥10 (Ki≤0.1 nM)) | 0.1 to 1 nM | – | –
